# Test results taken from patent US10618901B2 (GlaxoSmithKline Intellectual Property Development Limited, priority 2014, dated 2020).
# Molecular target: T1, 6HIS-Tev-LRRK2 (1326-2527) (Homo sapiens, UniProt Q5S007)
# T1 construct: A LRRK2 cDNA encoding residues 1326-2527 was received from Dundee University; made in house; host or cells: Spodoptera frugiperda Sf9 (baculovirus, pFB-HTb)
# T1 sequence (Q5S007 1326-2527): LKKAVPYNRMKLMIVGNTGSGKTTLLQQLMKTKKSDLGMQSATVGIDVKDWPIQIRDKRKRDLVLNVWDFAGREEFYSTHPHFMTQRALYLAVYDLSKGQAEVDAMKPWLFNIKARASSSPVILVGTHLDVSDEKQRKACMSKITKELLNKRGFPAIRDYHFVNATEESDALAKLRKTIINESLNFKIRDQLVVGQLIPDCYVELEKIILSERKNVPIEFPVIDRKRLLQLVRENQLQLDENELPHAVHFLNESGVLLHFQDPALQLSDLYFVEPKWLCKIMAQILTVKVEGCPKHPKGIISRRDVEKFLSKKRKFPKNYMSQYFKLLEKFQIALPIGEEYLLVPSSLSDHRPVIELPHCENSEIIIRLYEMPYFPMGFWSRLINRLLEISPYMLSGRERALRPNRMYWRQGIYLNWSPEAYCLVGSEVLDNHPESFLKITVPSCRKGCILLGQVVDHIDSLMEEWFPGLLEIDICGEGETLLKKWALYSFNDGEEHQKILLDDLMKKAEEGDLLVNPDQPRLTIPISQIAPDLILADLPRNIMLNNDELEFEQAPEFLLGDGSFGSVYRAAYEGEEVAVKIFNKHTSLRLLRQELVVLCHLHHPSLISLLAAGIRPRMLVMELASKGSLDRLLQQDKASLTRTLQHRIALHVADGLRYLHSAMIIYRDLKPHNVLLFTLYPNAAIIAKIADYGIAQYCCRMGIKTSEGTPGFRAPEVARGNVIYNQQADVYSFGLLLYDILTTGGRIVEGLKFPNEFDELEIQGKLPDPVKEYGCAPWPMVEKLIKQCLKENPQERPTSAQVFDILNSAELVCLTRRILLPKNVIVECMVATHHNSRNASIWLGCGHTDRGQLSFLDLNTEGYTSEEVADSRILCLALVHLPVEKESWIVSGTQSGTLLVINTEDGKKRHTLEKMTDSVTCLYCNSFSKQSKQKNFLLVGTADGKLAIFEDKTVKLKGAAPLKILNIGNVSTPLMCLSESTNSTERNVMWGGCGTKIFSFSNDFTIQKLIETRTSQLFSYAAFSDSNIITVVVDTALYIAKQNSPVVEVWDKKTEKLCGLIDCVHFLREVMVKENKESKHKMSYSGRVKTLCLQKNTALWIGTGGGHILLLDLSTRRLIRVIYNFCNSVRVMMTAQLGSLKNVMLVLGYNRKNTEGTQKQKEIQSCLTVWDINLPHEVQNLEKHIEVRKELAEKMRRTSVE
# Assay: LRRK2 Inhibition Mass Spectrometry Assay
# Type: biochemical
# Settings: 60 nM LRRK2 enzyme; 25 uM LRRKtide; 20 uM ATP; read-out: LRRK2 Inhibition Mass Spectrometry Assay (pIC50) (converted)
# Method: A LRRK2 cDNA encoding residues 1326-2527 was received from Dundee University (described in M. Jaleel et al., 2007, Biochem J, 405: 407-417). This gene fragment was subcloned into pFB-HTb (Invitrogen) using BamHI and NotI restriction sites. The LRRK2 plasmid was recombined into the baculovirus genome according to the BAC-to-BAC protocol described by Invitrogen. Transfection into Spodoptera frugiperda (Sf9) insect cells was performed using Cellfectin (Invitrogen), according to the manufacturer's protocol to generate P1 and P2 baculovirus stocks.
# Sf9 cells were grown in HyClone SFX (Thermo Scientific) growth media at 27° C., 80 rpm in shake flask until of a sufficient volume to inoculate a bioreactor. The cells were grown in a 20 liter working volume Wave bioreactor (GE Healthcare) at 27° C., 50% dissolved oxygen and an agitation rate 22 rocks per minute, 10 degree rock angle, 200 ml/min air with a cell concentration of approximately 6×e6 cells/ml. The cells were infected with P2 Baculovirus at a multiplicity of infection (MOI) of 3. The cultivation was continued for a 48 hour expression phase. The infected cells were removed from the growth media by centrifugation at 2500 g using a Sorvall RC 3C Plus centrifuge at 2500 g for 20 minutes. The cell pellet was immediately frozen and subsequently supplied for purification.
# A 260 g pellet was allowed to thaw in a water bath at 27° C. with 800 ml lysis buffer/buffer A (50 mm Tris-HCl pH 8.5, 300 mM NaCl, 1 mm DTT, 10% glycerol, 1 ml/L calbiochem complete protease inhibitor cocktail and benzonase (50 ul/800 ml)) before being dounce homogenised on ice using 20 strokes per 100 ml. The suspension was packed in ice and sonicated at 50% amplitude for 3 min 10 sec on/off using a ¾″ probe. The suspension was then centrifuged at 100,000 g for 90 min, at 4° C.
# The lysate (700 ml) was decanted from the insoluble pellet and contacted for 3 h at 4 C with 10 ml His bind Ni NTA resin by end over end mixing. The resin was recovered by centrifugation, 3000 g, 5 min at 4 C, and packed in an XK16 column. The column was then washed with 10 column volumes buffer A, 10 column volumes buffer B (buffer A+1M NaCl) and 10 column volumes buffer C (buffer A+20 mM imidazole). The column was then eluted with 15 column volumes buffer D (buffer A+300 mM imidazole) collecting 2 ml fractions. All washes and elution were conducted at 4 ml/min.
# Fractions identified by SDS-PAGE as containing protein of interest were pooled and loaded directly onto a 320 ml SEC Superdex 200 pg column that was pre-equilibrated with buffer E (50 mM Tris-HCl pH 8.5, 300 mM NaCl, 10% glycerol, 1 mM DTT). The column was loaded and eluted with 1.2 column volumes buffer E at 2 ml/min collecting 2 ml fractions. Fractions identified by SDS-PAGE as containing protein of interest were tested for activity.
# Production of LRRKtide for LRRK2 Inhibition Mass Spectrometry Assay
# The ‘LRRKtide’ peptide H-RLGRDKYKTLRQIRQ-OH was synthesized as follows. The protected peptide was assembled on a solid-phase synthesiser using preloaded Wang resin and utilising standard Fmoc synthesis protocols. The crude peptide was obtained after cleavage from the resin with a mixture of trifluoroacetic acid (TFA), triisopropylsilane and water (95:2.5:2.5) for 3 hours at room temperature and was then purified using a C18 reverse-phase column utilising a 0.1% TFA-buffered water/acetonitrile gradient. The resulting fractions were analysed and fractions which were >95% pure by analytical HPLC and giving the correct molecular weight (mw) (by MALDiTOF mass spectroscopy) were pooled and freeze dried. The final material was analysed by HPLC and MALDiTOF mass spectroscopy.
# LRRK2 Inhibition Mass Spectrometry Assay
# This assay for Leucine Rich Repeat Kinase 2 (LRRK2) inhibition is based on the direct measurement of the peptide ‘LRRKtide’ (LRRKtide: RLGRDKYKT*LRQIRQ (H-RLGRDKYKTLRQIRQ-OH used for this screen)) and phosphorylated ‘LRRKtide’ using a high throughput RapidFire mass spectrometry assay. […]
row,SMILES,IC50 [nM]
1,"CCOc1nc(Nc2cnn(C3CN(C4COC4)CCO3)c2Cl)nc2[nH]ccc12 (single isomer, unassigned) [Example E141, N-(5-chloro-1-(4-(oxetan-3-yl)morpholin-2-yl)-1H-pyrazol-4-yl)-4-ethoxy-7H-pyrrolo[2,3-d]pyrimidin-2-amine]",7.94
2,"CCOc1nc(Nc2cnn(CCN3CCO[C@H](C(F)F)C3)c2C)nc2[nH]ccc12 [Example E100, (S)—N-(1-(2-(2-(difluoromethyl)morpholino)ethyl)-5-methyl-1H-pyrazol-4-yl)-4-ethoxy-7H-pyrrolo[2,3-d]pyrimidin-2-amine]",7.94
3,"CCOc1nc(Nc2cnn(C3CC(N4CCOCC4)C3)c2C)nc2[nH]ccc12 (stereo not drawn) [Example E86, 4-ethoxy-N-(5-methyl-1-(3-morpholinocyclobutyl)-1H-pyrazol-4-yl)-7H-pyrrolo[2,3-d] pyrimidin-2-amine]",10
4,"CCOc1nc(Nc2cnn([C@H]3CCN(C4COC4)C[C@@H]3F)c2Cl)nc2[nH]ccc12 (single isomer, unassigned) [Example E104]",7.94
5,"CCOc1nc(Nc2cnn(C3CCN(C4COC4)CC3(F)F)c2Cl)nc2[nH]ccc12 (single isomer, unassigned) [Example E134, N-(5-chloro-1-(3,3-difluoro-1-(oxetan-3-yl)piperidin-4-yl)-1H-pyrazol-4-yl)-4-ethoxy-7H-pyrrolo[2,3-d]pyrimidin-2-amine]",7.94
6,"CCOc1nc(Nc2cnn(C3CCOCC3C)c2C)nc2[nH]ccc12 (single isomer, unassigned) [Example E113, (cis)-4-ethoxy-N-(5-methyl-1-(3-methyltetrahydro-2H-pyran-4-yl)-1H-pyrazol-4-yl)-7H-pyrrolo[2,3-d]pyrimidin-2-amine]",10
7,"CCOc1nc(Nc2cnn([C@@H]3CCN(C4COC4)C[C@H]3F)c2Cl)nc2[nH]ccc12 (single isomer, unassigned) [Example E105]",7.94
8,"CCOc1nc(Nc2cnn(C3CN(C)CCC3(F)F)c2C)nc2[nH]ccc12 (single isomer, unassigned) [Example E121, N-(1-(4,4-difluoro-1-methylpiperidin-3-yl)-5-methyl-1H-pyrazol-4-yl)-4-ethoxy-7H-pyrrolo[2,3-d]pyrimidin-2-amine]",10
9,"CCOc1nc(Nc2cnn(C3CN(C4COC4)CCC3(F)F)c2Cl)nc2[nH]ccc12 (single isomer, unassigned) [Example E124, N-(5-chloro-1-(4,4-difluoro-1-(oxetan-3-yl)piperidin-3-yl)-1H-pyrazol-4-yl)-4-ethoxy-7H-pyrrolo[2,3-d]pyrimidin-2-amine]",10
